The source of these data is ChEMBL document CHEMBL3785048, “Effects of polar receptor agonists designed for the periphery on ATP-induced Ca2+release from keratinocytes” (Medchemcomm, 2016).

The target of data set [1] is Sigma non-opioid intracellular receptor 1 (Cavia porcellus) (UniProt Q60492). Nature of the data set: Displacement of [3H]-(+)-pentazocine from guinea pig Sigma1-receptor at 10 uM after 120 mins by liquid scintillation counting method. On the technique in general: Loss of bound radioactivity is the signal in a displacement assay; it reports binding, not function.
Sigma non-opioid intracellular receptor 1 (Cavia porcellus), sequence (Q60492 whole entry): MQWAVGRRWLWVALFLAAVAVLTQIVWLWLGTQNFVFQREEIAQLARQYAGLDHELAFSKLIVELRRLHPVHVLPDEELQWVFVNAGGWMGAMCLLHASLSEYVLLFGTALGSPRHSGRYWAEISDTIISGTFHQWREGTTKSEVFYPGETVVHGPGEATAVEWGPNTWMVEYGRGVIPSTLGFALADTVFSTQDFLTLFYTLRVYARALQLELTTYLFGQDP
The species entered for the next data set is Rattus norvegicus. Nature of the data set: Displacement of [3H]DTG from rat sigma2 receptor at 10 uM after 120 mins by liquid scintillation counting method.
Data set [2] deals with T1, Kappa-type opioid receptor (Homo sapiens, UniProt P41145). Nature of the data set: Agonist activity at human kappa opioid receptor expressed in HEK-293 cells after 45 mins by [35S]GTP-gamma-S binding assay in presence of 10 uM of GDP relative to U-69,593. It is filed as cell-based. Particulars: HEK293.
T1 sequence (P41145 whole entry): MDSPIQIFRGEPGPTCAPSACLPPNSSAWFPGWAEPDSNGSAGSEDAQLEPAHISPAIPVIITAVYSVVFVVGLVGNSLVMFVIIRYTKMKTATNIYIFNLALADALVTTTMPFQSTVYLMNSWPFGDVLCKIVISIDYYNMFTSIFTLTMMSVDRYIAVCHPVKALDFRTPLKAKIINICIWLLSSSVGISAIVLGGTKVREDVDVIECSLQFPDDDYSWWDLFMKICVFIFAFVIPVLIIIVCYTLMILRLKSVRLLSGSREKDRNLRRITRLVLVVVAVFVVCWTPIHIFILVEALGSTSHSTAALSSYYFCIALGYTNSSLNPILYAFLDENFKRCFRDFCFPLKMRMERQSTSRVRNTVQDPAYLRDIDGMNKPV
The nature of data set [3]: Distribution coefficient, logD between n-octonol and aqueous MOPS buffer at pH 7.4 by LC-MS analysis detection based shake flask method. It is filed as physicochemical. Particulars: n-octanol/aqueous MOPS buffer.
Data set [4] relates to CHO-K1. The data set can be described thus: Selectivity index, ratio of Ki for human mu opioid receptor expressed in CHO-K1 cells to guinea pig kappa opioid receptor. The format is cell-based.
The test system of data set [5] is CHO-K1. The data set can be described thus: Selectivity index, ratio of Ki for human mu opioid receptor expressed in CHO-K1 cells to Ki for human kappa opioid receptor expressed on HEK-293 cells. It is filed as cell-based.
For another data set, the species on record is Sus scrofa. Nature of the data set: Displacement of [3H]MK-801 from pig N-methyl D-aspartate receptor phencyclidine binding site at 10 uM after 150 min by liquid scintillation counting method.
In data set [6] the target is Delta-type opioid receptor (Homo sapiens) (UniProt P41143). The data set can be described thus: Displacement of [3H]deltrophine from human delta opioid receptor expressed in CHO-K1 cells at 10 uM after 150 mins by liquid scintillation counting method. The format is cell-based.
Delta-type opioid receptor (Homo sapiens), sequence (P41143 whole entry): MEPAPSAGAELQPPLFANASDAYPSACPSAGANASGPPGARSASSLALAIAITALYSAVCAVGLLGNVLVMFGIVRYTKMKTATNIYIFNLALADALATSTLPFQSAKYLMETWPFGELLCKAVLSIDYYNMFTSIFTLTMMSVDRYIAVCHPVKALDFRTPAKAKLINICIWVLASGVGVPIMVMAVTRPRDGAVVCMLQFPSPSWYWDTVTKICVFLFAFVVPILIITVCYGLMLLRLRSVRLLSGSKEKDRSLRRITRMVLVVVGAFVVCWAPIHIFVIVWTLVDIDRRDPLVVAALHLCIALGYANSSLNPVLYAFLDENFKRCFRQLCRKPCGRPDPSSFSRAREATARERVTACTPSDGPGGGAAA
In a further data set the target is Mu-type opioid receptor (Homo sapiens, UniProt P35372). Nature of the data set: biochemical. The format is cell-based, CHO-K1.
Mu-type opioid receptor, sequence (P35372 whole entry): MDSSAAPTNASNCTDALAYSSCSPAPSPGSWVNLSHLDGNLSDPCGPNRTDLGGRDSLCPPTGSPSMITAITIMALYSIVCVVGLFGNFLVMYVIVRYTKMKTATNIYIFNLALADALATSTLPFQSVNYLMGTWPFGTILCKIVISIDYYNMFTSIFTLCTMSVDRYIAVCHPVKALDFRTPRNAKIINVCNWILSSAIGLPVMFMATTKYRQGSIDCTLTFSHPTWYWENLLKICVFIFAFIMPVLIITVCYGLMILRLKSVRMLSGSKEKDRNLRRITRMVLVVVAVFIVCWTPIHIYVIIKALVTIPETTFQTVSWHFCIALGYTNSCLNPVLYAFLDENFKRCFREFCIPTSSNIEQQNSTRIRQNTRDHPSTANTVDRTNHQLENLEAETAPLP
Data set [7] has as its target T1, Kappa-type opioid receptor. The data set can be described thus: Agonist activity at kappa opioid receptor in ATP stimulated human HaCaT cells assessed as reduction in intracellular Ca2+ release at 1 uM after 45 mins by FURA-2AM dye based luminescence spectrophotometry method. It is filed as functional, cell-based.
In data set [8] the target is T1, Kappa-type opioid receptor. Nature of the data set: biochemical. The format is cell-based, HEK293.
Description: Displacement of [3H]Cl-977 from human kappa opioid receptor expressed on HEK-293 cells by liquid scintillation counting method
Data set [9] concerns CHO-K1. Nature of the data set: Selectivity index, ratio of Ki for human delta opioid receptor expressed in CHO-K1 cells to guinea pig kappa opioid receptor. It is filed as cell-based.
Data set [10] has as its system CHO-K1. The data set can be described thus: Selectivity index, ratio of Ki for human delta opioid receptor expressed in CHO-K1 cells to Ki for human kappa opioid receptor expressed on HEK-293 cells. It is filed as cell-based.
A short description of data set [11]: Distribution coefficient, logD between n-octonol and aqueous PBS buffer at pH 5.4 by LC-MS analysis detection based shake flask method. The format is physicochemical. To be noted: n-octanol/aqueous PBS buffer.
The target in data set [12] is Kappa-type opioid receptor (Cavia porcellus, UniProt P41144). The data set can be described thus: Displacement of [3H]U-69,593 from kappa opioid receptor in guinea pig brain membarnes by liquid scintillation counting method.
Kappa-type opioid receptor (Cavia porcellus, UniProt P41144), sequence (P41144 whole entry): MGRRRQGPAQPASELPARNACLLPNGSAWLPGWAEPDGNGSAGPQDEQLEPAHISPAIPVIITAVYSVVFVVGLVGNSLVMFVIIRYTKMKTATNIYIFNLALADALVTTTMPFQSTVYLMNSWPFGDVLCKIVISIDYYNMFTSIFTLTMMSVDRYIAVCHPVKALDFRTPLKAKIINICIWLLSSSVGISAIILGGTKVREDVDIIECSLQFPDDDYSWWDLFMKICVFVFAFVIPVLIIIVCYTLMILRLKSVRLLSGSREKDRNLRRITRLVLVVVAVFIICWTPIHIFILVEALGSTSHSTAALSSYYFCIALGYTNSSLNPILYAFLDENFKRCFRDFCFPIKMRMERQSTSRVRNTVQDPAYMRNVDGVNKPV
Data set [13] addresses T1, Kappa-type opioid receptor. Nature of the data set: Agonist activity at human kappa opioid receptor expressed in HEK-293 cells after 45 mins by [35S]GTP-gamma-S binding assay in presence of 10 uM of GDP. It is filed as cell-based, HEK293. (In general: GTPγS is a poorly hydrolysed GTP analogue; its binding reports G protein activation.)

Activity calls are given as the source filed them. The calls are words filed in the database; no cut-off is given here.

Take `O=C(Cc1ccc(Cl)c(Cl)c1)N1CCN(Cc2cccnc2)C2CCCC(N3CCCC3)C21` (racemic): the results for the inhibition (in data set [1]; in the data set listed under Rattus norvegicus; in data set [6]) were 20%, 1% and 40%, respectively. Further, the Intrinsic activity in data set [2] turned out to be 100%. Besides, the figures for the pH-dependent lipophilicity (logD) in data set [3] and in data set [11] were 1.1 and -0.45, respectively. For the same compound, the Ratio Ki in the data set on CHO-K1 [4] is greater than 10000; in the data set on CHO-K1 [5] it was 100; in the data set with CHO-K1 [9], greater than 10000; in the data set on CHO-K1 [10], 100. Also, in the data set listed under Sus scrofa, the inhibition (in general, the relative decrease from the control value, in per cent) is “inactive”. In addition, the inhibitory constant (Ki) (in general, a measure of affinity in units of concentration, obtained from inhibition or displacement) on Mu-type opioid receptor turned out to be 2460 nM; in data set [8], 22 nM; in data set [12], 0.13 nM. Also, the inhibition result in [7] is “Active”.

`CN(C(=O)/C=C/c1ccoc1)[C@@H]1CC[C@@]2(O)[C@H]3Cc4ccc(O)c5c4[C@@]2(CCN3CC2CC2)[C@H]1O5`: the inhibition in data set [7] is 40%.

Take `O=C(Cc1ccc(Cl)c(Cl)c1)N1CCNC2CCCC(N3CCC(O)C3)C21` (mixture of isomers): the results for the logD in [3] and in [11] were 0.23 and -2.47, respectively.

As for `O=C(Cc1ccc(Cl)c(Cl)c1)N1CCN(Cc2cccnc2)C2CCCC(N3CCC(O)C3)C21` (mixture of isomers), the inhibition in [1] was 10%; in the data set listed under Rattus norvegicus it was 23%; in data set [6], 35%. Also, the Intrinsic activity in [2] was 100%. Moreover, the logD (as a rule, lipophilicity at a set pH, counting ionised and neutral species) in [3] is 1.26; in [11], -0.39. For the same compound, the Ratio Ki in the data set on CHO-K1 [4] is 1000; in the data set on CHO-K1 [5], 100; with CHO-K1 [9], 1000; with CHO-K1 [10], 100. In addition, in the data set filed under Sus scrofa, the inhibition result is “inactive”. The Ki on Mu-type opioid receptor came to 3480 nM; in data set [8], 31 nM. Besides, in data set [7], the inhibition entry is “Active”.

`COC(=O)N1CCN(C(=O)Cc2ccc(Cl)c(Cl)c2)C2C(N3CCC(O)C3)CCCC21` (mixture of isomers): the pH-dependent lipophilicity (logD) stood at 1.31 in [3] and 0.04 in [11]. The EC50 (in general, the concentration needed to bring the measured effect to its halfway point) in data set [13] was determined as 79 nM. The inhibition result in [7] is “Active”.

`COC(=O)N1CCN(C(=O)Cc2ccc(Cl)c(Cl)c2)C2C(N3CCCC3)CCCC21` (stereo not drawn): the log distribution coefficient (logD) in data set [3] was 1.29; in data set [11], 0.39.
